# Reference: PubChem BioAssay AID248 (DTP/NCI, 2004)
# “And” between values parts separate entries of the source, which are not always exact repeats. Identical values can stand only once. Toxic doses and inconclusive results are not listed.
# Tested on: L1210 leukemia ip in BDF1 mice, survival T/C
# Assay: NCI In Vivo Anticancer Drug Screen. Data for tumor model L1210 Leukemia (intraperitoneal) in B6D2F1 (BDF1) mice
# Details: higher = longer survival
# In short: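 Ratio derived from survival: compound-dosed mice over vehicle-dosed mice, all bearing a transplantable tumor.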
# [1] = endpoint: mean survival time, dose: 200.0 mg/kg/injection, schedule: Q01DX009 (ip), vehicle: saline
# [2] = endpoint: mean survival time, dose: 100.0 mg/kg/injection, schedule: Q01DX009 (ip), vehicle: saline
# [3] = endpoint: mean survival time, dose: 100.0 mg/kg/injection, schedule: Q04DX003 (ip), vehicle: saline
# [4] = endpoint: mean survival time, dose: 200.0 mg/kg/injection, schedule: Q04DX003 (ip), vehicle: saline
# [5] = endpoint: mean survival time, dose: 100.0 mg/kg/injection, schedule: Q01DX001 (ip), vehicle: saline
# [6] = endpoint: mean survival time, dose: 200.0 mg/kg/injection, schedule: Q01DX001 (ip), vehicle: saline
# [7] = endpoint: mean survival time, dose: 400.0 mg/kg/injection, schedule: Q01DX001 (ip), vehicle: saline
compound,measurement,setting,value
CCOCCOCCOCCCNCCCN1CC1,T/C,"endpoint: mean survival time, dose: 88.0 mg/kg/injection, schedule: Q01DX009 (ip), vehicle: saline",117 % of control
same,T/C,[1],96 % of control
same,T/C,"endpoint: mean survival time, dose: 300.0 mg/kg/injection, schedule: Q01DX001 (ip), vehicle: saline",116 % of control
NCC1CC2CCC1C2 (stereo unspecified),T/C,[2],90 % of control
same,T/C,[3],101 % of control
same,T/C,[1],90 % of control
same,T/C,[4],103 % of control
same,T/C,"endpoint: mean survival time, dose: 400.0 mg/kg/injection, schedule: Q04DX003 (ip), vehicle: saline",103 % of control
O=C(CCCC(=O)N/N=C/c1ccc(O)cc1O)N/N=C\c1ccc(O)cc1O,T/C,"endpoint: mean survival time, dose: 50.0 mg/kg/injection, schedule: Q01DX001 (ip), vehicle: saline",90 % of control
same,T/C,[5],96 % of control
same,T/C,[6],96 % of control
same,T/C,[7],93 % of control
CCOc1nc2ccccc2c2cc3ccccc3cc12,T/C,[5],103 % of control
same,T/C,[6],109 % of control
same,T/C,[7],111 % of control
c1cc2n(n1)CCN2,T/C,"endpoint: mean survival time, dose: 26.6 mg/kg/injection, schedule: Q01DX Z (ip), vehicle: methylcellulose (MC)",110 % of control
same,T/C,"endpoint: mean survival time, dose: 40.0 mg/kg/injection, schedule: Q01DX Z (ip), vehicle: methylcellulose (MC)",108 % of control
same,T/C,"endpoint: mean survival time, dose: 50.0 mg/kg/injection, schedule: Q01DX009 (ip), vehicle: water",109 % of control
same,T/C,"endpoint: mean survival time, dose: 60.0 mg/kg/injection, schedule: Q01DX Z (ip), vehicle: methylcellulose (MC)",107 % of control and 112 % of control
same,T/C,"endpoint: mean survival time, dose: 90.0 mg/kg/injection, schedule: Q01DX Z (ip), vehicle: methylcellulose (MC)",104 % of control and 112 % of control
same,T/C,[5],103 % of control
same,T/C,"endpoint: mean survival time, dose: 100.0 mg/kg/injection, schedule: Q01DX001 (sc), vehicle: saline",112 % of control
same,T/C,[2],112 % of control
same,T/C,"endpoint: mean survival time, dose: 100.0 mg/kg/injection, schedule: Q01DX009 (ip), vehicle: water",107 % of control
same,T/C,[3],98 % of control and 100 % of control and 104 % of control
same,T/C,"endpoint: mean survival time, dose: 100.0 mg/kg/injection, schedule: Q04DX003 (ip), vehicle: water",114 % of control
same,T/C,"endpoint: mean survival time, dose: 100.0 mg/kg/injection, schedule: Q04DX003 (sc), vehicle: saline",102 % of control and 105 % of control
same,T/C,"endpoint: mean survival time, dose: 100.0 mg/kg/injection, schedule: Q08DX002 (ip), vehicle: saline",105 % of control
same,T/C,"endpoint: mean survival time, dose: 132.0 mg/kg/injection, schedule: Q01DX009 (ip), vehicle: saline",115 % of control
same,T/C,"endpoint: mean survival time, dose: 135.0 mg/kg/injection, schedule: Q01DX Z (ip), vehicle: methylcellulose (MC)",100 % of control
same,T/C,[6],101 % of control
same,T/C,"endpoint: mean survival time, dose: 200.0 mg/kg/injection, schedule: Q01DX001 (oral), vehicle: saline",105 % of control
same,T/C,"endpoint: mean survival time, dose: 200.0 mg/kg/injection, schedule: Q01DX001 (sc), vehicle: saline",112 % of control
same,T/C,"endpoint: mean survival time, dose: 200.0 mg/kg/injection, schedule: Q01DX009 (ip), vehicle: water",121 % of control
same,T/C,[4],98 % of control and 107 % of control and 124 % of control
same,T/C,"endpoint: mean survival time, dose: 200.0 mg/kg/injection, schedule: Q04DX003 (oral), vehicle: saline",110 % of control and 116 % of control
same,T/C,"endpoint: mean survival time, dose: 200.0 mg/kg/injection, schedule: Q04DX003 (sc), vehicle: saline",108 % of control and 118 % of control
same,T/C,"endpoint: mean survival time, dose: 200.0 mg/kg/injection, schedule: Q08DX002 (ip), vehicle: saline",93 % of control
same,T/C,"endpoint: mean survival time, dose: 264.0 mg/kg/injection, schedule: Q04DX003 (ip), vehicle: saline",110 % of control and 117 % of control
same,T/C,[7],116 % of control
same,T/C,"endpoint: mean survival time, dose: 400.0 mg/kg/injection, schedule: Q01DX001 (oral), vehicle: saline",113 % of control
same,T/C,"endpoint: mean survival time, dose: 400.0 mg/kg/injection, schedule: Q04DX003 (ip), vehicle: water",151 % of control
same,T/C,"endpoint: mean survival time, dose: 400.0 mg/kg/injection, schedule: Q04DX003 (oral), vehicle: saline",124 % of control
same,T/C,"endpoint: mean survival time, dose: 400.0 mg/kg/injection, schedule: Q04DX003 (sc), vehicle: saline",120 % of control
same,T/C,"endpoint: mean survival time, dose: 400.0 mg/kg/injection, schedule: Q08DX002 (ip), vehicle: saline",101 % of control
same,T/C,"endpoint: mean survival time, dose: 600.0 mg/kg/injection, schedule: Q04DX003 (ip), vehicle: saline",177 % of control
same,T/C,"endpoint: mean survival time, dose: 800.0 mg/kg/injection, schedule: Q01DX001 (oral), vehicle: saline",119 % of control
same,T/C,"endpoint: mean survival time, dose: 800.0 mg/kg/injection, schedule: Q04DX003 (ip), vehicle: saline",102 % of control and 104 % of control
same,T/C,"endpoint: mean survival time, dose: 800.0 mg/kg/injection, schedule: Q04DX003 (oral), vehicle: saline",108 % of control and 118 % of control
same,T/C,"endpoint: mean survival time, dose: 800.0 mg/kg/injection, schedule: Q04DX003 (sc), vehicle: saline",100 % of control
same,T/C,"endpoint: mean survival time, dose: 800.0 mg/kg/injection, schedule: Q08DX002 (ip), vehicle: saline",158 % of control
same,T/C,"endpoint: median survival time, dose: 13.0 mg/kg/injection, schedule: Q03HX024 (ip), vehicle: saline",102 % of control
same,T/C,"endpoint: median survival time, dose: 20.0 mg/kg/injection, schedule: Q03HX024 (ip), vehicle: saline",100 % of control
same,T/C,"endpoint: median survival time, dose: 30.0 mg/kg/injection, schedule: Q03HX024 (ip), vehicle: saline",103 % of control
same,T/C,"endpoint: median survival time, dose: 40.0 mg/kg/injection, schedule: Q01DX009 (ip), vehicle: saline",104 % of control
same,T/C,"endpoint: median survival time, dose: 50.0 mg/kg/injection, schedule: Q01DX009 (oral), vehicle: saline",110 % of control
same,T/C,"endpoint: median survival time, dose: 50.0 mg/kg/injection, schedule: Q01DX009 (sc), vehicle: saline",100 % of control
same,T/C,"endpoint: median survival time, dose: 60.0 mg/kg/injection, schedule: Q01DX009 (ip), vehicle: saline",111 % of control
same,T/C,"endpoint: median survival time, dose: 88.0 mg/kg/injection, schedule: Q01DX009 (ip), vehicle: saline",113 % of control
same,T/C,"endpoint: median survival time, dose: 100.0 mg/kg/injection, schedule: Q01DX005 (ip), vehicle: saline",111 % of control
same,T/C,"endpoint: median survival time, dose: 100.0 mg/kg/injection, schedule: Q01DX009 (ip), vehicle: saline",113 % of control
same,T/C,"endpoint: median survival time, dose: 100.0 mg/kg/injection, schedule: Q01DX009 (oral), vehicle: saline",115 % of control
same,T/C,"endpoint: median survival time, dose: 100.0 mg/kg/injection, schedule: Q01DX009 (sc), vehicle: saline",120 % of control
same,T/C,"endpoint: median survival time, dose: 100.0 mg/kg/injection, schedule: Q04DX003 (ip), vehicle: Klucel (hydroxypropylcellulose) (HPC)",105 % of control
same,T/C,"endpoint: median survival time, dose: 100.0 mg/kg/injection, schedule: Q04DX003 (ip), vehicle: saline",116 % of control
same,T/C,"endpoint: median survival time, dose: 100.0 mg/kg/injection, schedule: Q08DX002 (ip), vehicle: saline",100 % of control
same,T/C,"endpoint: median survival time, dose: 108.0 mg/kg/injection, schedule: Q04DX003 (ip), vehicle: saline",100 % of control
same,T/C,"endpoint: median survival time, dose: 133.0 mg/kg/injection, schedule: Q01DX009 (ip), vehicle: saline",121 % of control
same,T/C,"endpoint: median survival time, dose: 133.0 mg/kg/injection, schedule: Q04DX003 (ip), vehicle: saline",119 % of control
same,T/C,"endpoint: median survival time, dose: 133.0 mg/kg/injection, schedule: Q08DX002 (ip), vehicle: saline",119 % of control
same,T/C,"endpoint: median survival time, dose: 180.0 mg/kg/injection, schedule: Q04DX003 (ip), vehicle: saline",100 % of control
same,T/C,"endpoint: median survival time, dose: 200.0 mg/kg/injection, schedule: Q01DX001 (ip), vehicle: saline",103 % of control
same,T/C,"endpoint: median survival time, dose: 200.0 mg/kg/injection, schedule: Q01DX009 (ip), vehicle: saline",106 % of control
same,T/C,"endpoint: median survival time, dose: 200.0 mg/kg/injection, schedule: Q01DX009 (oral), vehicle: saline",86 % of control
same,T/C,"endpoint: median survival time, dose: 200.0 mg/kg/injection, schedule: Q01DX009 (sc), vehicle: saline",150 % of control
same,T/C,"endpoint: median survival time, dose: 200.0 mg/kg/injection, schedule: Q04DX003 (oral), vehicle: saline",119 % of control and 120 % of control
same,T/C,"endpoint: median survival time, dose: 200.0 mg/kg/injection, schedule: Q08DX002 (oral), vehicle: saline",111 % of control and 120 % of control
same,T/C,"endpoint: median survival time, dose: 300.0 mg/kg/injection, schedule: Q01DX001 (ip), vehicle: saline",104 % of control
same,T/C,"endpoint: median survival time, dose: 300.0 mg/kg/injection, schedule: Q04DX003 (ip), vehicle: saline",110 % of control
same,T/C,"endpoint: median survival time, dose: 400.0 mg/kg/injection, schedule: Q04DX003 (ip), vehicle: Klucel (hydroxypropylcellulose) (HPC)",150 % of control
same,T/C,"endpoint: median survival time, dose: 400.0 mg/kg/injection, schedule: Q04DX003 (ip), vehicle: saline",166 % of control
same,T/C,"endpoint: median survival time, dose: 400.0 mg/kg/injection, schedule: Q04DX003 (sc), vehicle: saline",195 % of control
same,T/C,"endpoint: median survival time, dose: 400.0 mg/kg/injection, schedule: Q08DX002 (ip), vehicle: saline",150 % of control
same,T/C,"endpoint: median survival time, dose: 444.0 mg/kg/injection, schedule: Q01DX001 (ip), vehicle: saline",114 % of control
same,T/C,"endpoint: median survival time, dose: 600.0 mg/kg/injection, schedule: Q04DX003 (ip), vehicle: saline",101 % of control
same,T/C,"endpoint: median survival time, dose: 600.0 mg/kg/injection, schedule: Q04DX003 (oral), vehicle: saline",90 % of control
same,T/C,"endpoint: median survival time, dose: 600.0 mg/kg/injection, schedule: Q04DX003 (sc), vehicle: saline",150 % of control
same,T/C,"endpoint: median survival time, dose: 600.0 mg/kg/injection, schedule: Q08DX002 (oral), vehicle: saline",165 % of control
same,T/C,"endpoint: median survival time, dose: 600.0 mg/kg/injection, schedule: Q08DX002 (sc), vehicle: saline",180 % of control
same,T/C,"endpoint: median survival time, dose: 660.0 mg/kg/injection, schedule: Q08DX002 (ip), vehicle: saline",161 % of control
same,T/C,"endpoint: median survival time, dose: 800.0 mg/kg/injection, schedule: Q04DX003 (ip), vehicle: saline",106 % of control and 70 % of control
